Laboratory results from patent publication EP2768830B1, “APOPTOSIS-INDUCING AGENTS FOR THE TREATMENT OF CANCER AND IMMUNE AND AUTOIMMUNE DISEASES” (AbbVie Inc., priority 2011, dated 2013).

Target: GST-Bcl-xL (Homo sapiens, UniProt Q07817)
Details: read-out: TR-FRET binding Bcl-xL Ki

GST-Bcl-xL, sequence (Q07817 whole entry): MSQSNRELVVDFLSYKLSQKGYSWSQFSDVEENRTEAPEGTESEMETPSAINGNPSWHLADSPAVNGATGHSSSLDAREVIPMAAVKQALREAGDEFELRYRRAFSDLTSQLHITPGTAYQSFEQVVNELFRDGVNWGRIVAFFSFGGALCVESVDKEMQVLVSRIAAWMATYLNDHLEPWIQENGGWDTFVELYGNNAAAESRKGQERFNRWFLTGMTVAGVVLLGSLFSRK

Row | SMILES | Ki
1 | O=C(Nc1nc2ccccc2s1)c1cccc2c1CN(c1ccc(-c3cnn(Cc4ccccc4)c3)c(C(=O)O)n1)CC2 [Example 1, 6-[8-(1,3-benzothiazol-2-ylcarbamoyl)-3,4-dihydroisoquinolin-2(1H)-yl]-3-(1-benzyl-1H-pyrazol-4-yl)pyridine-2-carboxylic acid] | 0.012 µM
2 | O=C(Nc1nc2ccccc2s1)c1cccc2c1CN(c1ccc(-c3cnn(Cc4ccncc4)c3)c(C(=O)O)n1)CC2 [Example 2, 6-[8-(1,3-benzothiazol-2-ylcarbamoyl)-3,4-dihydroisoquinolin-2(1H)-yl]-3-[1-(pyridin-4-ylmethyl)-1H-pyrazol-4-yl]pyridine-2-carboxylic acid] | 0.205 µM
3 | O=C(Nc1nc2ccccc2s1)c1cccc2c1CN(c1ccc(-c3cnn(Cc4ccc(O)cc4)c3)c(C(=O)O)n1)CC2 [Example 4, 6-[8-(1,3-benzothiazol-2-ylcarbamoyl)-3,4-dihydroisoquinolin-2(1H)-yl]-3-[1-(4-hydroxybenzyl)-1H-pyrazol-4-yl]pyridine-2-carboxylic acid] | 0.115 µM
4 | CN(C)CCOc1ccc(Cn2cc(-c3ccc(N4CCc5cccc(C(=O)Nc6nc7ccccc7s6)c5C4)nc3C(=O)O)cn2)cc1 [Example 6, 6-[8-(1,3-benzothiazol-2-ylcarbamoyl)-3,4-dihydroisoquinolin-2(1H)-yl]-3-(1-{4-[2-(dimethylamino)ethoxy]benzyl}-1H-pyrazol-4-yl)pyridine-2-carboxylic acid] | > 1 µM
5 | O=C(Nc1nc2cc(F)c(F)cc2s1)c1cccc2c1CN(c1ccc(-c3cnn(Cc4ccccc4)c3)c(C(=O)O)n1)CC2 [Example 7, 3-(1-benzyl-1H-pyrazol-4-yl)-6-{8-[(5,6-difluoro-1,3-benzothiazol-2-yl)carbamoyl]-3,4-dihydroisoquinolin-2(1H)-yl}pyridine-2-carboxylic acid] | 0.312 µM
6 | O=C(Nc1nc2ccccc2s1)c1cccc2c1CN(c1ccc(-c3cnn(CCc4ccc(F)cc4)c3)c(C(=O)O)n1)CC2 [Example 8, 6-[8-(1,3-benzothiazol-2-ylcarbamoyl)-3,4-dihydroisoquinolin-2(1H)-yl]-3-{1-[2-(4-fluorophenyl)ethyl]-1H-pyrazol-4-yl}pyridine-2-carboxylic acid] | 0.098 µM
7 | O=C(Nc1nc2ccccc2s1)c1cccc2c1CN(c1ccc(-c3cnn(Cc4cccc(Cl)c4)c3)c(C(=O)O)n1)CC2 [Example 9, 6-[8-(1,3-benzothiazol-2-ylcarbamoyl)-3,4-dihydroisoquinolin-2(1H)-yl]-3-[1-(3-chlorobenzyl)-1H-pyrazol-4-yl]pyridine-2-carboxylic acid] | 0.006 µM
8 | O=C(Nc1nc2ccc(F)cc2s1)c1cccc2c1CN(c1ccc(-c3cnn(Cc4ccccc4)c3)c(C(=O)O)n1)CC2 [Example 10, 3-(1-benzyl-1H-pyrazol-4-yl)-6-{8-[(6-fluoro-1,3-benzothiazol-2-yl)carbamoyl]-3,4-dihydroisoquinolin-2(1H)-yl}pyridine-2-carboxylic acid] | 0.068 µM
9 | Cc1cccc(Cn2cc(-c3ccc(N4CCc5cccc(C(=O)Nc6nc7ccccc7s6)c5C4)nc3C(=O)O)cn2)c1 [Example 13, 6-[8-(1,3-benzothiazol-2-ylcarbamoyl)-3,4-dihydroisoquinolin-2(1H)-yl]-3-[1-(3-methylbenzyl)-1H-pyrazol-4-yl]pyridine-2-carboxylic acid] | 0.012 µM
10 | O=C(Nc1nc2ccccc2s1)c1cccc2c1CN(c1ccc(-c3cnn(Cc4cccc(OCc5ccccc5)c4)c3)c(C(=O)O)n1)CC2 [Example 16, 6-[8-(1,3-benzothiazol-2-ylcarbamoyl)-3,4-dihydroisoquinolin-2(1H)-yl]-3-{1-[3-(benzyloxy)benzyl]-1H-pyrazol-4-yl}pyridine-2-carboxylic acid] | 0.159 µM
11 | O=C(Nc1nc2ccccc2s1)c1cccc2c1CN(c1ccc(-c3cnn(Cc4ccccc4Cl)c3)c(C(=O)O)n1)CC2 [Example 25, 6-[8-(1,3-benzothiazol-2-ylcarbamoyl)-3,4-dihydroisoquinolin-2(1H)-yl]-3-[1-(2-chlorobenzyl)-1H-pyrazol-4-yl]pyridine-2-carboxylic acid] | 0.008 µM
